Measurements as given in patent publication EP0726263A2, “Herbicidal (1,3,4)oxadiazoles and thiadiazoles” (American Cyanamid Company, priority 1995, dated 1996).

Key:
Type in all cases: in vivo
Zea mays [1] = assay: Herbicidal activity, preemergence test; details: pre; sprayed onto soil, 800 g of active material per hectare; evaluated 3 weeks after treatment
Method in brief: (§1)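 Spray dose 800 g a.i./ha in 900 L/ha; acetone stock with 0.4% Triton X-155, water-diluted. Pre: sown loam soil, read at 3 wk. Post: seedling plants, read at 2 wk. Visual 0-9 rating vs untreated.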

Setaria viridis [2] = assay: Herbicidal activity, preemergence test; details: pre; sprayed onto soil, 800 g of active material per hectare; evaluated 3 weeks after treatment
Method in brief: as §1

Triticum aestivum [3] = assay: Herbicidal activity, preemergence test; details: pre; sprayed onto soil, 800 g of active material per hectare; evaluated 3 weeks after treatment
Method in brief: as §1

Ipomoea hederacea [4] = assay: Herbicidal activity, preemergence test; details: pre; sprayed onto soil, 800 g of active material per hectare; evaluated 3 weeks after treatment
Method in brief: as §1

Veronica persica [5] = assay: Herbicidal activity, preemergence test; details: pre; sprayed onto soil, 800 g of active material per hectare; evaluated 3 weeks after treatment
Method in brief: as §1

Amaranthus retroflexus [6] = assay: Herbicidal activity, preemergence test; details: pre; sprayed onto soil, 800 g of active material per hectare; evaluated 3 weeks after treatment
Method in brief: as §1

Helianthus annuus [7] = assay: Herbicidal activity, preemergence test; details: pre; sprayed onto soil, 800 g of active material per hectare; evaluated 3 weeks after treatment
Method in brief: as §1

Echinochloa crus-galli [8] = assay: Herbicidal activity, preemergence test; details: pre; sprayed onto soil, 800 g of active material per hectare; evaluated 3 weeks after treatment
Method in brief: as §1

Ambrosia artemisifolia [9] = assay: Herbicidal activity, preemergence test; details: pre; sprayed onto soil, 800 g of active material per hectare; evaluated 3 weeks after treatment
Method in brief: as §1

Stellaria media [10] = assay: Herbicidal activity, preemergence test; details: pre; sprayed onto soil, 800 g of active material per hectare; evaluated 3 weeks after treatment
Method in brief: as §1

Alopecurus myosuroides [11] = assay: Herbicidal activity, preemergence test; details: pre; sprayed onto soil, 800 g of active material per hectare; evaluated 3 weeks after treatment
Method in brief: as §1

Lamium purpureum [12] = assay: Herbicidal activity, preemergence test; details: pre; sprayed onto soil, 800 g of active material per hectare; evaluated 3 weeks after treatment
Method in brief: as §1

Glycine max [13] = assay: Herbicidal activity, preemergence test; details: pre; sprayed onto soil, 800 g of active material per hectare; evaluated 3 weeks after treatment
Method in brief: as §1

Galium aparine [14] = assay: Herbicidal activity, preemergence test; details: pre; sprayed onto soil, 800 g of active material per hectare; evaluated 3 weeks after treatment
Method in brief: as §1

Viola arvensis [15] = assay: Herbicidal activity, preemergence test; details: pre; sprayed onto soil, 800 g of active material per hectare; evaluated 3 weeks after treatment
Method in brief: as §1

Gossypium hirsutum [16] = assay: Herbicidal activity, preemergence test; details: pre; sprayed onto soil, 800 g of active material per hectare; evaluated 3 weeks after treatment
Method in brief: as §1

Abutilon theophrasti [17] = assay: Herbicidal activity, preemergence test; details: pre; sprayed onto soil, 800 g of active material per hectare; evaluated 3 weeks after treatment
Method in brief: as §1

Hordeum vulgare [18] = assay: Herbicidal activity, preemergence test; details: pre; sprayed onto soil, 800 g of active material per hectare; evaluated 3 weeks after treatment
Method in brief: as §1

Zea mays [19] = assay: Herbicidal activity, postemergence test; details: post; sprayed onto seedling plants, 800 g of active material per hectare; evaluated 2 weeks after treatment
Method in brief: as §1

Setaria viridis [20] = assay: Herbicidal activity, postemergence test; details: post; sprayed onto seedling plants, 800 g of active material per hectare; evaluated 2 weeks after treatment
Method in brief: as §1

Triticum aestivum [21] = assay: Herbicidal activity, postemergence test; details: post; sprayed onto seedling plants, 800 g of active material per hectare; evaluated 2 weeks after treatment
Method in brief: as §1

Ipomoea hederacea [22] = assay: Herbicidal activity, postemergence test; details: post; sprayed onto seedling plants, 800 g of active material per hectare; evaluated 2 weeks after treatment
Method in brief: as §1

Veronica persica [23] = assay: Herbicidal activity, postemergence test; details: post; sprayed onto seedling plants, 800 g of active material per hectare; evaluated 2 weeks after treatment
Method in brief: as §1

Amaranthus retroflexus [24] = assay: Herbicidal activity, postemergence test; details: post; sprayed onto seedling plants, 800 g of active material per hectare; evaluated 2 weeks after treatment
Method in brief: as §1

Helianthus annuus [25] = assay: Herbicidal activity, postemergence test; details: post; sprayed onto seedling plants, 800 g of active material per hectare; evaluated 2 weeks after treatment
Method in brief: as §1

Echinochloa crus-galli [26] = assay: Herbicidal activity, postemergence test; details: post; sprayed onto seedling plants, 800 g of active material per hectare; evaluated 2 weeks after treatment
Method in brief: as §1

Ambrosia artemisifolia [27] = assay: Herbicidal activity, postemergence test; details: post; sprayed onto seedling plants, 800 g of active material per hectare; evaluated 2 weeks after treatment
Method in brief: as §1

Stellaria media [28] = assay: Herbicidal activity, postemergence test; details: post; sprayed onto seedling plants, 800 g of active material per hectare; evaluated 2 weeks after treatment
Method in brief: as §1

Alopecurus myosuroides [29] = assay: Herbicidal activity, postemergence test; details: post; sprayed onto seedling plants, 800 g of active material per hectare; evaluated 2 weeks after treatment
Method in brief: as §1

Lamium purpureum [30] = assay: Herbicidal activity, postemergence test; details: post; sprayed onto seedling plants, 800 g of active material per hectare; evaluated 2 weeks after treatment
Method in brief: as §1

Glycine max [31] = assay: Herbicidal activity, postemergence test; details: post; sprayed onto seedling plants, 800 g of active material per hectare; evaluated 2 weeks after treatment
Method in brief: as §1

Galium aparine [32] = assay: Herbicidal activity, postemergence test; details: post; sprayed onto seedling plants, 800 g of active material per hectare; evaluated 2 weeks after treatment
Method in brief: as §1

Viola arvensis [33] = assay: Herbicidal activity, postemergence test; details: post; sprayed onto seedling plants, 800 g of active material per hectare; evaluated 2 weeks after treatment
Method in brief: as §1

Gossypium hirsutum [34] = assay: Herbicidal activity, postemergence test; details: post; sprayed onto seedling plants, 800 g of active material per hectare; evaluated 2 weeks after treatment
Method in brief: as §1

Abutilon theophrasti [35] = assay: Herbicidal activity, postemergence test; details: post; sprayed onto seedling plants, 800 g of active material per hectare; evaluated 2 weeks after treatment
Method in brief: as §1

Hordeum vulgare [36] = assay: Herbicidal activity, postemergence test; details: post; sprayed onto seedling plants, 800 g of active material per hectare; evaluated 2 weeks after treatment
Method in brief: as §1

Structure (SMILES): C[C@H](NC(=O)c1nnc(C(C)(C)C)o1)c1ccccc1 [Example 2, (S)-5-tert-Butyl-[1,3,4]oxadiazole-2-carboxylic acid (1-phenylethyl)amide]
- ZEAMX control rating (0-9) (Zea mays [1]): 0 (no effect)
- SETVI control rating (0-9) (Setaria viridis [2]): 5 (definite injury)
- TRZAW control rating (0-9) (Triticum aestivum [3]): 0 (no effect)
- IPOHE control rating (0-9) (Ipomoea hederacea [4]): 0 (no effect)
- VERPE control rating (0-9) (Veronica persica [5]): 8 (approaching complete kill)
- AMARE control rating (0-9) (Amaranthus retroflexus [6]): 5 (definite injury)
- HELAN control rating (0-9) (Helianthus annuus [7]): 0 (no effect)
- ECHCG control rating (0-9) (Echinochloa crus-galli [8]): 0 (no effect)
- AMBEL control rating (0-9) (Ambrosia artemisifolia [9]): 3 (moderate effect)
- STEME control rating (0-9) (Stellaria media [10]): 5 (definite injury)
- ALOMY control rating (0-9) (Alopecurus myosuroides [11]): 2 (slight effect)
- LAMPU control rating (0-9) (Lamium purpureum [12]): 0 (no effect)
- GLXMA control rating (0-9) (Glycine max [13]): 0 (no effect)
- GALAP control rating (0-9) (Galium aparine [14]): 0 (no effect)
- VIOAR control rating (0-9) (Viola arvensis [15]): 5 (definite injury)
- GOSHI control rating (0-9) (Gossypium hirsutum [16]): 0 (no effect)
- ABUTH control rating (0-9) (Abutilon theophrasti [17]): 4 (injury)
- HORVW control rating (0-9) (Hordeum vulgare [18]): 0 (no effect)
- ZEAMX control rating (0-9) (Zea mays [19]): 1 (trace effect)
- SETVI control rating (0-9) (Setaria viridis [20]): 4 (injury)
- TRZAW control rating (0-9) (Triticum aestivum [21]): 3 (moderate effect)
- IPOHE control rating (0-9) (Ipomoea hederacea [22]): 5 (definite injury)
- VERPE control rating (0-9) (Veronica persica [23]): 7 (good herbicidal effect)
- AMARE control rating (0-9) (Amaranthus retroflexus [24]): 6 (herbicidal effect)
- HELAN control rating (0-9) (Helianthus annuus [25]): 4 (injury)
- ECHCG control rating (0-9) (Echinochloa crus-galli [26]): 3 (moderate effect)
- AMBEL control rating (0-9) (Ambrosia artemisifolia [27]): 5 (definite injury)
- STEME control rating (0-9) (Stellaria media [28]): 6 (herbicidal effect)
- ALOMY control rating (0-9) (Alopecurus myosuroides [29]): 0 (no effect)
- LAMPU control rating (0-9) (Lamium purpureum [30]): 2 (slight effect)
- GLXMA control rating (0-9) (Glycine max [31]): 3 (moderate effect)
- GALAP control rating (0-9) (Galium aparine [32]): 4 (injury)
- VIOAR control rating (0-9) (Viola arvensis [33]): 5 (definite injury)
- GOSHI control rating (0-9) (Gossypium hirsutum [34]): 4 (injury)
- ABUTH control rating (0-9) (Abutilon theophrasti [35]): 6 (herbicidal effect)
- HORVW control rating (0-9) (Hordeum vulgare [36]): 1 (trace effect)
